This passage reports viability and IC50 results from ChEMBL document CHEMBL3045245, “Synthesis and antitumor activities of certain novel 2-amino-9-(4-halostyryl)-4H-pyrano[3,2-h]quinoline derivatives” (Med Chem Res, 2012).

≈ marks a conversion by molar mass, not a printed value.

Assay [1] can be described thus: Cytotoxicity against Homo sapiens (human) HCT cells assessed as cell viability at 3.125 ug/ml after 48 hr by MTT assay. It is filed as functional. Particulars: read-out: Activity.
For assay [2], the system named is MCF7. In words: Cytotoxicity against Homo sapiens (human) MCF7 cells assessed as cell viability at 6.25 ug/ml after 48 hr by MTT assay. Particulars: MCF7, 48 h, read-out: Activity. It is filed as functional. (Tetrazolium assays rely on reduction of a dye to a coloured formazan, in cell work by metabolically active cells.)
The nature of assay [3]: Cytotoxicity against Homo sapiens (human) HCT cells assessed as cell viability at 12.5 ug/ml after 48 hr by MTT assay. Particulars: read-out: Activity. The assay is classed as functional.
Assay [4] relates to MCF7. In words: Cytotoxicity against Homo sapiens (human) MCF7 cells assessed as cell viability at 3.125 ug/ml after 48 hr by MTT assay. It is filed as functional. Particulars: MCF7, 48 h, read-out: Activity.
Assay [5] is described as follows: Cytotoxicity against Homo sapiens (human) HCT cells assessed as cell viability at 6.25 ug/ml after 48 hr by MTT assay. It is filed as functional. Particulars: read-out: Activity.
Assay [6] relates to HepG2. The experiment in a line: Cytotoxicity against Homo sapiens (human) HepG2 cells assessed as cell viability at 3.125 ug/ml after 48 hr by MTT assay. The assay is classed as functional. Particulars: HepG2, 48 h, read-out: Activity.
Assay [7] relates to MCF7. In words: Cytotoxicity against Homo sapiens (human) MCF7 cells assessed as cell viability at 1.56 ug/ml after 48 hr by MTT assay. It is filed as functional. Particulars: MCF7, 48 h, read-out: Activity.
A short description of assay [8]: Cytotoxicity against Homo sapiens (human) HCT cells after 48 hr by MTT assay. The assay is classed as functional, cell-based.
The test system of assay [9] is MCF7. The experiment in a line: Cytotoxicity against Homo sapiens (human) MCF7 cells assessed as cell viability at 50 ug/ml after 48 hr by MTT assay. It is filed as functional. Particulars: MCF7, 48 h, read-out: Activity.
Assay [10] is described as follows: Cytotoxicity against Homo sapiens (human) HCT cells assessed as cell viability at 25 ug/ml after 48 hr by MTT assay. Particulars: read-out: Activity. It is filed as functional.
Assay [11] concerns HepG2. In words: Cytotoxicity against Homo sapiens (human) HepG2 cells assessed as cell viability at 50 ug/ml after 48 hr by MTT assay. The assay is classed as functional. Particulars: HepG2, 48 h, read-out: Activity.
The subject of assay [12] is MCF7. The experiment in a line: Cytotoxicity against Homo sapiens (human) MCF7 cells assessed as cell viability at 25 ug/ml after 48 hr by MTT assay. It is filed as functional. Particulars: MCF7, 48 h, read-out: Activity.
Assay [13] deals with MCF7. In words: Cytotoxicity against Homo sapiens (human) MCF7 cells assessed as cell viability at 12.5 ug/ml after 48 hr by MTT assay. It is filed as functional. Particulars: MCF7, 48 h, read-out: Activity.
Assay [14] deals with HepG2. The experiment in a line: Cytotoxicity against Homo sapiens (human) HepG2 cells assessed as cell viability at 6.25 ug/ml after 48 hr by MTT assay. It is filed as functional. Particulars: HepG2, 48 h, read-out: Activity.
In assay [15] the test system is HepG2. In words: Cytotoxicity against Homo sapiens (human) HepG2 cells assessed as cell viability at 12.5 ug/ml after 48 hr by MTT assay. The assay is classed as functional. Particulars: HepG2, 48 h, read-out: Activity.
The subject of assay [16] is HepG2. The experiment in a line: Cytotoxicity against Homo sapiens (human) HepG2 cells after 48 hr by MTT assay. The assay is classed as functional, cell-based. Particulars: HepG2, 48 h.
Assay [17] is described as follows: Cytotoxicity against Homo sapiens (human) HCT cells assessed as cell viability at 1.56 ug/ml after 48 hr by MTT assay. The assay is classed as functional. Particulars: read-out: Activity.
Assay [18] deals with HepG2. The experiment in a line: Cytotoxicity against Homo sapiens (human) HepG2 cells assessed as cell viability at 25 ug/ml after 48 hr by MTT assay. The assay is classed as functional. Particulars: HepG2, 48 h, read-out: Activity.
Assay [19] relates to HepG2. In words: Cytotoxicity against Homo sapiens (human) HepG2 cells assessed as cell viability at 1.56 ug/ml after 48 hr by MTT assay. Particulars: HepG2, 48 h, read-out: Activity. It is filed as functional.
Assay [20] in a line: Cytotoxicity against Homo sapiens (human) HCT cells assessed as cell viability at 50 ug/ml after 48 hr by MTT assay. It is filed as functional. Particulars: read-out: Activity.
In assay [21] the test system is MCF7. In words: Cytotoxicity against Homo sapiens (human) MCF7 cells after 48 hr by MTT assay. The assay is classed as functional, cell-based. Particulars: MCF7, 48 h.

As usually defined, the IC50 is the midpoint of a concentration-inhibition curve.

`N#CC1=C(N)Oc2c(ccc3ccc(/C=C/c4ccc(Br)cc4)nc23)C1c1ccc(Br)cc1` (centres undefined): the viability at 3.125 µg/mL came out at 90.7% in assay [1], 53.1% in the assay on MCF7 [4] and 54.8% in the assay on HepG2 [6]. Besides, the viability at 6.25 µg/mL in the assay on MCF7 [2] is 40.6%; in [5], 80.5%; in the assay on HepG2 [14] it was 41.4%. The viability at 12.5 µg/mL in [3] stood at 51%; with MCF7 [13], 31.7%; in the assay on HepG2 [15] it was 34.1%. In addition, the viability at 1.56 µg/mL was 61.1% in the assay with MCF7 [7], 95.7% in assay [17] and 74.3% in the assay on HepG2 [19]. Also, the results for the IC50 (in [8]; with HepG2 [16]; in the assay on MCF7 [21]) were 12.7 µg/mL (≈ 22.7 µM), 8.7 µg/mL (≈ 15.6 µM) and 3.9 µg/mL (≈ 6.97 µM), respectively. Also, the viability at 50 µg/mL with MCF7 [9] is 22.4%; in the assay with HepG2 [11], 16%; in assay [20] it was 24%. The figures for the viability at 25 µg/mL (in [10]; in the assay on MCF7 [12]; with HepG2 [18]) were 33.5%, 27.4% and 25.7%, respectively.
As for `N#CC1=C(N)Oc2c(ccc3ccc(/C=C/c4ccc(Cl)cc4)nc23)C1c1ccc(Cl)cc1` (centres undefined), the viability at 3.125 µg/mL in assay [1] turned out to be 59%; in the assay on MCF7 [4], 61.9%; in the assay with HepG2 [6], 85.8%. Moreover, the viability at 6.25 µg/mL is 45.4% in the assay on MCF7 [2], 42.6% in assay [5] and 79.2% in the assay on HepG2 [14]. Besides, the viability at 12.5 µg/mL in assay [3] was 33.8%; with MCF7 [13] it was 39.7%; in the assay with HepG2 [15] it was 74%. The viability at 1.56 µg/mL came out at 86.6% in the assay on MCF7 [7], 69.1% in assay [17] and 95.4% in the assay with HepG2 [19]. Also, the IC50 in assay [8] came to 4.8 µg/mL (≈ 10.2 µM); in the assay with HepG2 [16] it was 48.2 µg/mL (≈ 102 µM); with MCF7 [21], 5.6 µg/mL (≈ 11.9 µM). In addition, the viability at 50 µg/mL came to 29.6% in the assay with MCF7 [9], 48.4% in the assay with HepG2 [11] and 24.7% in assay [20]. Further, the viability at 25 µg/mL in assay [10] stood at 29%; in the assay with MCF7 [12] it was 33.8%; with HepG2 [18] it was 68.2%.
For `CCOC(=O)C1=C(N)Oc2c(ccc3ccc(/C=C/c4ccc(Cl)cc4)nc23)C1c1ccc(Cl)cc1` (centres undefined), the viability at 3.125 µg/mL in [1] stood at 69.3%; with MCF7 [4], 67.8%; with HepG2 [6] it was 65.3%. Also, the viability at 6.25 µg/mL in the assay on MCF7 [2] worked out at 47.2%; in [5], 64.1%; in the assay with HepG2 [14], 53%. Besides, the viability at 12.5 µg/mL in [3] is 54.3%; with MCF7 [13] it was 41.6%; with HepG2 [15] it was 45.6%. Also, the viability at 1.56 µg/mL with MCF7 [7] worked out at 78.1%; in assay [17], 78.6%; in the assay with HepG2 [19], 81.9%. Further, the half-inhibitory concentration (IC50) is 13 µg/mL (≈ 25.1 µM) in assay [8], 7.9 µg/mL (≈ 15.3 µM) in the assay on HepG2 [16] and 5.5 µg/mL (≈ 10.6 µM) in the assay with MCF7 [21]. The values for the viability at 50 µg/mL (in the assay on MCF7 [9]; with HepG2 [11]; in assay [20]) were 27.2%, 28.1% and 14.1%, respectively. The results for the viability at 25 µg/mL (in [10]; with MCF7 [12]; in the assay on HepG2 [18]) were 20.4%, 34.6% and 37.9%, respectively.
In the case of `CC[C@]1(O)C[C@@H]2CN(CCc3c([nH]c4ccccc34)[C@@](C(=O)OC)(c3cc4c(cc3OC)N(C)[C@H]3[C@@](O)(C(=O)OC)[C@H](OC(C)=O)[C@]5(CC)C=CCN6CC[C@]43[C@@H]65)C2)C1` [VINBLASTINE], the viability at 3.125 µg/mL in assay [1] was determined as 47.5%; in the assay with MCF7 [4], 60.4%; in the assay on HepG2 [6], 55%. For the same compound, the viability at 6.25 µg/mL is 48.8% in the assay with MCF7 [2], 38.1% in assay [5] and 45.1% in the assay on HepG2 [14]. Moreover, the viability at 12.5 µg/mL is 28.2% in assay [3], 29.6% in the assay with MCF7 [13] and 24.2% in the assay on HepG2 [15]. Besides, the viability at 1.56 µg/mL came out at 76.2% in the assay on MCF7 [7], 53.4% in [17] and 72.1% with HepG2 [19]. For the same compound, the IC50 turned out to be 2.6 µg/mL (≈ 3.21 µM) in assay [8], 4.6 µg/mL (≈ 5.67 µM) in the assay with HepG2 [16] and 6.1 µg/mL (≈ 7.52 µM) with MCF7 [21]. Besides, the viability at 50 µg/mL in the assay with MCF7 [9] is 7.82%; with HepG2 [11], 14.4%; in [20] it was 16.3%. Moreover, the viability at 25 µg/mL came to 21.7% in [10], 15.2% in the assay on MCF7 [12] and 16.1% in the assay with HepG2 [18].
